In patent US5521311A, “5-aminoacetylaminosulfonanilide compounds” (Taisho Pharmaceutical Co., Ltd., priority 1993, dated 1996):
Where a name gives a salt, the structure may show the parent alone. Read-outs that look alike come from different tables or passages of the source.

Tests used:
[1] = system: adjuvant arthritis pain (squeaking response); test: Adjuvant arthritis (pain) test; format: in vivo, Lewis strain rats; conditions: squeaking response over 5 hours after oral administration
[2] = system: adjuvant arthritis; test: Adjuvant arthritis (therapy) test; format: in vivo, Lewis strain rats; conditions: foot volume on the day after final administration
Experimental: Experiment 2 [Adjuvant arthritis (therapy) test]
An adjuvant arthritis (therapy) test was carried out according to the method of Winder et al [Arthritis Rheum., vol. 12, page 472 (1969)].
Seven Lewis strain rats (for each group) were administered subcutaneously 0.7% Mycobacterium tuberculosis suspended in liquid paraffin into the left hind foot pad to induce adjuvant arthritis. 15 to 18 Days after the administration of adjuvant, rats with fully developed arthritis were administered orally with test drugs [the compound (a), (b), (i), (j), (k) and (m) of the present invention]and the control drug (indomethacin), each suspended in 5% aqueous gum arabic solution in an amount of 1 ml per 100 g of body weight once a day for 4 days.
On the day after the final administration, the volume of the foot was determined, and the edema inhibition rate (%) was calculated for the therapeutical effect. Doses of the test drugs were each 0.5 mg/kg, and dose of the control drug (indomethacin) was 1.0 mg/kg.

[3] = system: carrageenin foot edema; test: Carrageenin foot edema test; format: in vivo, Wister strain rats; conditions: for inhibition in vivo at 1 mg/kg / inhibition in vivo at 0.5 mg/kg: Rattus norvegicus, po, 3 h, read-out: Edema Inhibition rate; for inhibition in vivo at 0.5 mg/kg: *: dose of 0.5 mg/kg, orally
Experimental: Experiment 1 [Carrageenin foot edema test]
A carrageenin foot edema test was carried out according to the method of Winter et al [Proc. Soc. Exp. Biol. Med., vol. 111, page 544 (1962)].
Six Wister strain rats (for each group) were administered orally with the test drugs [the compounds (a) to (n) of the present invention] and the control drug (indomethacin), each suspended in 5% aqueous gum arabic solution in an amount of 1 ml per 100 g of body weight. An hour later, 0.1 ml of 1% carrageenin was administered subcutaneously into the left hind foot pad. Three hours after the administration of carrageenin, the volume of the foot was determined, and the edema inhibition rate (%) was calculated for the anti-inflammatory effect.
Doses of the test drugs (a) to (l) and the control drug (indomethacin) were each 1 mg/kg, and doses of test drugs (m) and (n) were each 0.5 mg/kg.

[4] = test drugs 0.5 mg/kg orally once a day for 4 days
[5] = 1 mg/kg orally, 1 hour before 1% carrageenin, foot volume 3 hours after carrageenin
[6] = 1 hour before 1% carrageenin, foot volume 3 hours after carrageenin

With `CS(=O)(=O)Nc1ccc([N+](=O)[O-])cc1Oc1ccccc1` [Control drug, N-(4-nitro-2-phenoxyphenyl)methanesulfonamide, reference compound] the Inhibition rate ([1]; control drug, dose not separately stated) was 19.4%.

In the case of `CCCCNCC(=O)Nc1cc(NS(C)(=O)=O)c(Oc2ccccc2)cc1[N+](=O)[O-]` [Example 1, N-[5-(n-butylaminoacetylamino)4-nitro-2-phenoxyphenyl]methanesulfonamide], the Inhibition rate ([1]; test drugs each 1.0 mg/kg) is reported as 50.6%, the “Edema Inhibition rate” value [2, 4] is reported as 61.1% and the inhibition in vivo at 1 mg/kg [3, 5] is reported as 34.6%.

For `CCCNCC(=O)Nc1cc(NS(C)(=O)=O)c(Oc2ccccc2)cc1[N+](=O)[O-]` [Example 2, N-[4-nitro-5-(n-propylaminoacetylamino)-2-phenoxyphenyl]methanesulfonamide], the Inhibition rate ([1]; test drugs each 1.0 mg/kg, listed as b) was 47.5%, the “Edema Inhibition rate” value ([2]; test drugs 0.5 mg/kg orally once a day for 4 days, listed as b) was 54.4% and the inhibition in vivo at 1 mg/kg [3, 5] was 30.2%.

For `CS(=O)(=O)Nc1cc(NC(=O)CNC2CC2)c([N+](=O)[O-])cc1Oc1ccccc1` [Example 5], the inhibition in vivo at 1 mg/kg [3, 5] was 31.4%.

`CS(=O)(=O)Nc1cc(NC(=O)CNC2CCCC2)c([N+](=O)[O-])cc1Oc1ccccc1` [Example 7] showed an inhibition in vivo at 1 mg/kg [3, 5] of 27.8%.

`CS(=O)(=O)Nc1cc(NC(=O)CNC2CCCCC2)c([N+](=O)[O-])cc1Oc1ccccc1` [Example 8] showed an inhibition in vivo at 1 mg/kg [3, 5] of 32.7%.

Work on `C=CCNCC(=O)Nc1cc(NS(C)(=O)=O)c(Oc2ccccc2)cc1[N+](=O)[O-]` [Example 9] yielded an inhibition in vivo at 1 mg/kg [3, 5] of 31.9%.

For `CS(=O)(=O)Nc1cc(NC(=O)CNCc2ccccc2)c([N+](=O)[O-])cc1Oc1ccccc1` [Example 10], the inhibition in vivo at 1 mg/kg [3, 5] was 35.8%.

With `CNCC(=O)Nc1cc(NS(C)(=O)=O)c(Oc2ccccc2)cc1[N+](=O)[O-]` [Example 20, N-(5-methylaminoacetylamino-4-nitro-2-phenoxyphenyl)methanesulfonamide] the “Edema Inhibition rate” value [2, 4] was 53.0% and the inhibition in vivo at 1 mg/kg [3, 5] was 41.8%.

With `CCNCC(=O)Nc1cc(NS(C)(=O)=O)c(Oc2ccccc2)cc1[N+](=O)[O-]` [Example 21, N-(5-ethylaminoacetylamino-4-nitro-2-phenoxyphenyl)methanesulfonamide] the “Edema Inhibition rate” value [2, 4] was 54.2% and the inhibition in vivo at 1 mg/kg [3, 5] was 39.9%.

In the case of `CS(=O)(=O)Nc1cc(NC(=O)CN)c([N+](=O)[O-])cc1Oc1ccccc1` [Example 22, N-(5-aminoacetylamino-4-nitro-2-phenoxyphenyl)methanesulfonamide], the Inhibition rate ([1]; test drugs each 1.0 mg/kg) is reported as 41.9%, the “Edema Inhibition rate” value [2, 4] is reported as 52.9% and the inhibition in vivo at 1 mg/kg [3, 5] is reported as 46.6%.

`CCCCNCC(=O)Nc1cc(NS(C)(=O)=O)c(Oc2ccccc2)cc1[N+](=O)[O-].Cl` [Example 23, N-[5-(n-butylaminoacetylamino)-4-nitro-2-phenoxyphenyl]methanesulfonamide hydrochloride] was tested, and the “Edema Inhibition rate” value [3, 5] was 25.1%.

For `CCCNCC(=O)Nc1cc(NS(C)(=O)=O)c(Oc2ccccc2)cc1[N+](=O)[O-]` [Example 24, N-[4-nitro-5-(n-propylaminoacetylamino)-2-phenoxyphenyl]methanesulfonamidehydrochloride], the Inhibition rate ([1]; test drugs each 1.0 mg/kg, listed as m) was 52.1%, the “Edema Inhibition rate” value ([2]; test drugs 0.5 mg/kg orally once a day for 4 days, listed as m) was 53.0% and the inhibition in vivo at 0.5 mg/kg [3, 6] was 22.4%.

With `CS(=O)(=O)Nc1cc(NC(=O)CN)c([N+](=O)[O-])cc1Oc1ccccc1` [Example 25, N-(5-aminoacetylamino-4-nitro-2-phenoxyphenyl)methanesulfonamide hydrochloride] the inhibition in vivo at 0.5 mg/kg [3, 6] was 27.9%.

`COc1ccc2c(c1)c(CC(=O)O)c(C)n2C(=O)c1ccc(Cl)cc1` [indomethacin, reference compound] was tested, and the “Edema Inhibition rate” value ([2]; control drug 1.0 mg/kg orally once a day for 4 days) was 39.5% and the inhibition in vivo at 1 mg/kg [3] was 21.4%.

With “N-[2-Cyclohexyloxy-5-(n-propylaminoacetylamino)phenyl]methanesulfonamide [Example 18]” the “Edema Inhibition rate” value [3, 5] was 36.0%.
